The assay concerns the target BTK enzyme (recombinant full-length BTK, hBTK) (Homo sapiens (Human), UniProt Q06187). Briefly: Btk enzyme activity assay, LANCE TR-FRET. Type of assay: biochemical. Particulars: 50 pM hBTK, 2 μM biotin-A5-peptide, 25 μM ATP, 60 minute compound & enzyme incubation, compound range 1 μM to 0.017 nM, read-out: BTK binding IC50. The method, then:
Btk Enzyme Activity Assay Methods
BTK enzymatic activity was determined with the LANCE (Lanthanide Chelate Excite) TR-FRET (Time-resolved fluorescence resonance energy transfer) assay. In this assay, the potency (IC50) of each compound was determined from an eleven point (1:3 serial dilution; final compound concentration range in assay from 1 μM to 0.017 nM) titration curve using the following outlined procedure. To each well of a black non-binding surface Corning 384-well microplate (Corning Catalog #3820), 5 nL of compound (2000 fold dilution in final assay volume of 10 μL) was dispensed, followed by the addition of 7.5 μL of 1× kinase buffer (50 mM Hepes 7.5, 10 mM MgCl2, 0.01% Brij-35, 1 mM EGTA, 0.05% BSA & 1 mM DTT) containing 5.09 pg/μL (66.67 pM) of BTK enzyme (recombinant protein from baculovirus-transfected Sf9 cells: full-length BTK, 6HIS-tag cleaved). Following a 60 minute compound & enzyme incubation, each reaction was initiated by the addition of 2.5 μL 1× kinase buffer containing 8 μM biotinylated “A5” peptide (Biotin-EQEDEPEGDYFEWLE-NH2) (SEQ.ID.NO.: 1), and 100 μM ATP. The final reaction in each well of 10 μL consists of 50 pM hBTK, 2 μM biotin-A5-peptide, and 25 μM ATP. Phosphorylation reactions were allowed to proceed for 120 minutes. Reactions were immediately quenched by the addition of 20 uL of 1× quench buffer (15 mM EDTA, 25 mM Hepes 7.3, and 0.1% Triton X-100) containing detection reagents (0.626 nM of LANCE-Eu-W1024-anti-phosphoTyrosine antibody, PerkinElmer and 86.8 nM of Streptavidin-conjugated Dylight 650, Dyomics/ThermoFisher Scientific). After 60 minutes incubation with detection reagents, reaction plates were read on a PerkinElmer EnVision plate reader using standard TR-FRET protocol. Briefly, excitation of donor molecules (Eu-chelate:anti-phospho-antibody) with a laser light source at 337 nm produces energy that can be transferred to Dylight-650 acceptor molecules if this donor:acceptor pair is within close proximity. Fluorescence intensity at both 665 nm (acceptor) and 615 nm (donor) are measured and a TR-FRET ratio calculated for each well (acceptor intensity/donor intensity). IC50 values were determined by 4 parameter robust fit of TR-FRET ratio values vs. (Log10) compound concentrations.
(In TR-FRET formats the signal depends on donor and acceptor labels being close together.)

Each structure is given as a SMILES string.

BTK enzyme (recombinant full-length BTK, hBTK), sequence (Q06187 whole entry): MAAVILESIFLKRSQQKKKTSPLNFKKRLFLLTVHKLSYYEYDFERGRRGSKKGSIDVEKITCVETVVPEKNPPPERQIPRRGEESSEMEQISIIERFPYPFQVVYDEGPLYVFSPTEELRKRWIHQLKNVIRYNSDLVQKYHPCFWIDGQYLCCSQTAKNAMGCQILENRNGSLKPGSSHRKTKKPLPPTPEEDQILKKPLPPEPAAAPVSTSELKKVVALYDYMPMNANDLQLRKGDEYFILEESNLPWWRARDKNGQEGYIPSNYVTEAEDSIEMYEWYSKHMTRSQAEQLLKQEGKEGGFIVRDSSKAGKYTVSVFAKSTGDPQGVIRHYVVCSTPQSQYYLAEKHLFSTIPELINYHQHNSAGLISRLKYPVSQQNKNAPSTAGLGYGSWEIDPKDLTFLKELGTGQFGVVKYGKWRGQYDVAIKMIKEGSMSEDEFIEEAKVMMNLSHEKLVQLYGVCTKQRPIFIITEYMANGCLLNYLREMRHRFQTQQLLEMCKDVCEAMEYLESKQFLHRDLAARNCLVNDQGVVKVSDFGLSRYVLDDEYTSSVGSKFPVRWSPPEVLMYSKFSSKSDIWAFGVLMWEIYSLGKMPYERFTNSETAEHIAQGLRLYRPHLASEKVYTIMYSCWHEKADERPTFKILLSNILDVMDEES

One may read the IC50 as the concentration that inhibits the measured activity by half. Turning to `CC1(C)[C@@H](c2nc(-c3ccc([C@@](C)(O)c4cccc(C(F)(F)F)c4)cc3)c3c(N)nccn23)CC[C@@]1(C)C(=O)O` [Example 13, (1R,3S)-3-[8-amino-1-(4-{(1R)-1-hydroxy-1-[3-(trifluoromethyl)phenyl]ethyl}phenyl)imidazo[1,5-a]pyrazin-3-yl]-1,2,2-trimethylcyclopentanecarboxylic acid], the 50% inhibitory concentration (IC50) was 86 nM. The result for `CC1(C(=O)O)CCC(C)(c2nc(-c3ccc([C@@](C)(O)c4cccc(C(F)(F)F)c4)cc3)c3c(N)nccn23)CC1` (stereo partly drawn) [Example 1, (R)-4-(8-amino-1-(4-(1-hydroxy-1-(3-(trifluoromethyl)phenyl)ethyl)phenyl)imidazo[1,5-a]pyrazin-3-yl)-1,4-dimethylcyclohexanecarboxylic acid] reads 39.4 nM; that for `C[C@@](O)(c1ccc(-c2nc(C34CCC(C(=O)O)(CC3)C4)n3ccnc(N)c23)cc1)c1cccc(C(F)(F)F)c1` [Example 8, 4-[8-amino-1-(4-{(1R)-1-hydroxy-1-[3-(trifluoromethyl)phenyl]ethyl}phenyl)imidazo[1,5-a]pyrazin-3-yl]bicyclo[2.2.1]heptane-1-carboxylic acid], 1.1 nM; that for `CCOc1cc([C@@](C)(O)c2cccc(C(F)(F)F)c2)ccc1-c1nc([C@@H]2CC[C@](C)(C(=O)O)C2(C)C)n2ccnc(N)c12` [Example 28, (1S,3R)-3-[8-amino-1-(2-ethoxy-4-{(1S)-1-hydroxy-1-[3-(trifluoromethyl)phenyl]ethyl}phenyl)imidazo[1,5-a]pyrazin-3-yl]-1,2,2-trimethylcyclopentanecarboxylic acid], 1.2 nM. With `CC1(C)[C@H](c2nc(-c3ccc([C@@](C)(O)c4cccc(C(F)(F)F)c4)cc3)c3c(N)ncc(F)n23)CC[C@]1(C)C(=O)O` [Example 24, (1S,3R)-3-[8-amino-5-fluoro-1-(4-{(1R)-1-hydroxy-1-[3-(trifluoromethyl)phenyl]ethyl}phenyl)imidazo[1,5-a]pyrazin-3-yl]-1,2,2-trimethylcyclopentanecarboxylic acid], the IC50 came out at 6.3 nM.

As for `C[C@@]1(C(=O)O)CC[C@](C)(c2nc(-c3ccc([C@@](C)(O)c4cccc(C(F)(F)F)c4)cc3)c3c(N)nccn23)C1` [Example 17, (1R,3S)-3-[8-amino-1-(4-{(1R)-1-hydroxy-1-[3-(trifluoromethyl)phenyl]ethyl}phenyl)imidazo[1,5-a]pyrazin-3-yl]-1,3-dimethylcyclopentanecarboxylic acid], the IC50 is 55.1 nM. Turning to `CC(C)[C@]1(C(=O)O)CC[C@@H](c2nc(-c3ccc([C@@](C)(O)c4cccc(C(F)F)c4)cc3)c3c(N)ncc(Cl)n23)C1` [Example 29, (1S,3R)-3-[8-amino-5-chloro-1-(4-{(1R)-1-[3-(difluoromethyl)phenyl]-1-hydroxyethyl}phenyl)imidazo[1,5-a]pyrazin-3-yl]-1-(1-methylethyl)cyclopentanecarboxylic acid], the IC50 turned out to be 2.8 nM.

With `C[C@@](O)(c1ccc(-c2nc(C34CCCC(C(=O)O)(CC3)CC4)n3ccnc(N)c23)cc1)c1cccc(C(F)(F)F)c1` [Example 9, 5-[8-amino-1-(4-{(1R)-1-hydroxy-1-[3-(trifluoromethyl)phenyl]ethyl}phenyl)imidazo[1,5-a]pyrazin-3-yl]bicyclo[3.2.2]nonane-1-carboxylic acid], the IC50 was determined as 7 nM. Regarding `CC(C)[C@H]1CC[C@@H](c2nc(-c3ccc([C@@](C)(O)c4cccc(C(F)(F)F)c4)cc3)c3c(N)nccn23)C[C@H]1C(=O)O` [Example 21, (1R,2R,5R)-5-[8-amino-1-(4-{(1R)-1-hydroxy-1-[3-(trifluoromethyl)phenyl]ethyl}phenyl)imidazo[1,5-a]pyrazin-3-yl]-2-(1-methylethyl)cyclohexanecarboxylic acid], the IC50 turned out to be 56.1 nM. The result for `CC(C)[C@]1(C(=O)O)CC[C@H](c2nc(-c3ccc([C@@](C)(O)c4cccc(C(F)F)c4)cc3)c3c(N)ncc(Cl)n23)C1` [Example 31, (1S,3S)-3-[8-amino-5-chloro-1-(4-{(1R)-1-[3-(difluoromethyl)phenyl]-1-hydroxyethyl}phenyl)imidazo[1,5-a]pyrazin-3-yl]-1-(1-methylethyl)cyclopentanecarboxylic acid] reads 133 nM; that for `C[C@@](O)(c1ccc(-c2nc([C@H]3C[C@H]4CC[C@@H](C3)[C@H]4C(=O)O)n3ccnc(N)c23)cc1)c1cccc(C(F)(F)F)c1` [Example 25, (3-endo,8-syn)-3-[8-amino-1-(4-{(1R)-1-hydroxy-1-[3-(trifluoromethyl)phenyl]ethyl}phenyl)imidazo[1,5-a]pyrazin-3-yl]bicyclo[3.2.1]octane-8-carboxylic acid], 39.9 nM; that for `C[C@]1(C(=O)O)CC[C@@](C)(c2nc(-c3ccc([C@@](C)(O)c4cccc(C(F)(F)F)c4)cc3)c3c(N)nccn23)C1` [Example 18, (1S,3R)-3-[8-amino-1-(4-{(1R)-1-hydroxy-1-[3-(trifluoromethyl)phenyl]ethyl}phenyl)imidazo[1,5-a]pyrazin-3-yl]-1,3-dimethylcyclopentanecarboxylic acid], 178 nM.

As to `C[C@@](O)(c1ccc(-c2nc([C@@H]3C[C@@H]4[C@H](C3)[C@@H]4C(=O)O)n3ccnc(N)c23)cc1)c1cccc(C(F)(F)F)c1` [Example 35, (1R,3r,5S,6s)-3-[8-amino-1-(4-{(1R)-1-hydroxy-1-[3-(trifluoromethyl)phenyl]ethyl}phenyl)imidazo[1,5-a]pyrazin-3-yl]bicyclo[3.1.0]hexane-6-carboxylic acid], the IC50 was found to be 15.7 nM.

As for `CC1(C)[C@H](c2nc(-c3ccc([C@@](C)(O)c4cccc(C(F)F)c4)cc3)c3c(N)nccn23)CC[C@]1(C)C(=O)O` [Example 27, (1S,3R)-3-[8-amino-1-(4-{(1R)-1-[3-(difluoromethyl)phenyl]-1-hydroxyethyl}phenyl)imidazo[1,5-a]pyrazin-3-yl]-1,2,2-trimethylcyclopentanecarboxylic acid], the half-maximal inhibitory concentration (IC50) turned out to be 0.78 nM.

`CCOc1cc(C(C)(O)c2cccc(C)c2)ccc1-c1nc(C23CCC(C(=O)O)(CC2)CC3)n2ccnc(N)c12` (stereo not shown) [Example 19, 4-(8-amino-1-{2-ethoxy-4-[1-hydroxy-1-(3-methylphenyl)ethyl]phenyl}imidazo[1,5-a]pyrazin-3-yl)bicyclo[2.2.2]octane-1-carboxylic acid]: the IC50 was determined as 4.1 nM.

With `C[C@]1(C(=O)O)CC[C@](C)(c2nc(-c3ccc([C@@](C)(O)c4cccc(C(F)(F)F)c4)cc3)c3c(N)nccn23)C1` [Example 16, (1S,3S)-3-[8-amino-1-(4-{(1R)-1-hydroxy-1-[3-(trifluoromethyl)phenyl]ethyl}phenyl)imidazo[1,5-a]pyrazin-3-yl]-1,3-dimethylcyclopentanecarboxylic acid], the IC50 came out at 7.6 nM.

These data come from US10208047B2, “Tertiary alcohol imidazopyrazine BTK inhibitors” (Merck Sharp & Dohme Corp., priority 2014, dated 2019).
